Tests used:
full-length SHP2 = target: T1, full-length SHP2 (Homo sapiens, UniProt Q06124); experiment: SHP2 enzymatic assay (fluorescence intensity kinetic assay, DiFMUP hydrolysis); assay type: biochemical; conditions: 1 nM His6-tagged SHP2(2-527), 1 μM activating peptide, 50 μM DiFMUP; single assay or mean of multiple assays; read-out: Biological Example 1 IC50
T1 construct: 1 nM full-length SHP2 (His6-tagged SHP2(2-527), recombinantly expressed in E. coli and purified in-house); His6; made in house; host or cells: E. coli
T1 sequence (Q06124 2-527): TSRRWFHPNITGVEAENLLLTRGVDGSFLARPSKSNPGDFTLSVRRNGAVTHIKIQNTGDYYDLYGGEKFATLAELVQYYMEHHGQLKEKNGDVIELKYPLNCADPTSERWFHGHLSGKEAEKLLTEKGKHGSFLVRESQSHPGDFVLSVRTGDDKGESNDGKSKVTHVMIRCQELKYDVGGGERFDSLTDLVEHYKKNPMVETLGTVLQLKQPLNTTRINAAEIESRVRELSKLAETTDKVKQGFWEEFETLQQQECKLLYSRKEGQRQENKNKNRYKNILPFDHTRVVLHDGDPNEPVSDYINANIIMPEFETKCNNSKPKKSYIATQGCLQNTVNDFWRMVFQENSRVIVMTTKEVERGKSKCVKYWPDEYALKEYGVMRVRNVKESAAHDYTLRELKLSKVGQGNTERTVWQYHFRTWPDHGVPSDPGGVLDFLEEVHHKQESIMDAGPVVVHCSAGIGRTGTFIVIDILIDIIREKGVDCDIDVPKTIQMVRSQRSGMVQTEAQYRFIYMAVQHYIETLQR

[1] = test system: ERK1/2 (Thr202/Tyr204) phosphorylation in KYSE520 cells; experiment: Cellular Phospho-p44/42 MAPK (Erk1/2) (Thr202/Tyr204) assay, In-Cell Western; assay type: cell-based; conditions: Homo sapiens, KYSE-520; KYSE520 cells, 1 hour incubation, pERK signal normalized to GAPDH; single assay or mean of multiple assays; read-out: Biological Example 2 IC50
In short: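 KYSE520 cells were treated 1 h with a 10-point 1:3 series (20 μM-1 nM, 0.5% DMSO), then fixed and stained for pERK1/2 (Thr202/Tyr204) and GAPDH by In-Cell Western. pERK signal was normalized to GAPDH per well; IC50 from 4-parameter fit.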

| Structure (SMILES) | IC50 (full-length SHP2) | IC50 [1] |
| --- | --- | --- |
| Nc1nccc(Sc2cnc(N3CCC4(CC3)Cc3nc(Cl)sc3C4N)nn2)c1Cl (stereo not shown) [Example 76, 1′-(6-((2-amino-3-chloropyridin-4-yl)thio)-1,2,4-triazin-3-yl)-2-chloro-4,6-dihydrospiro[cyclopenta[d]thiazole-5,4′-piperidin]-6-amine] | 41 nM | 4 nM |
| Nc1nccc(Sc2cnc(N3CCC4(CC3)Oc3ncccc3[C@H]4N)nn2)c1Cl [Example 77] | 74 nM | 92 nM |
| N[C@@H]1c2ccccc2CC12CCN(c1ncc(-c3ccccc3)nn1)CC2 [Example 79, (S)-1′-(6-phenyl-1,2,4-triazin-3-yl)-1,3-dihydrospiro[indene-2,4′-piperidin]-1-amine] | 84 nM | 697 nM |
| N[C@@H]1c2ccccc2CC12CCN(c1ncc(-c3cccc(Cl)c3)nn1)CC2 [Example 80, (S)-1′-(6-(3-chlorophenyl)-1,2,4-triazin-3-yl)-1,3-dihydrospiro[indene-2,4′-piperidin]-1-amine] | 429 nM | 2990 nM |
| Nc1nccc(Sc2cnc(N3CCC4(CC3)Cc3c(Cl)cccc3[C@@H]4N)nn2)c1Cl [Example 82, (R)-1′-(6-((2-amino-3-chloropyridin-4-yl)thio)-1,2,4-triazin-3-yl)-4-chloro-1,3-dihydrospiro[indene-2,4′-piperidin]-1-amine] | 205 nM | 541 nM |
| N[C@@H]1c2ccccc2CC12CCN(c1ncc(Sc3ccnc(NCCO)c3Cl)nn1)CC2 [Example 83, (S)-2-((4-((3-(1-amino-1,3-dihydrospiro[indene-2,4′-piperidin]-1′-yl)-1,2,4-triazin-6-yl)thio)-3-chloropyridin-2-yl)amino)ethan-1-ol] | 46 nM | 3 nM |

These reach a lower IC50 (full-length SHP2). Values come first.

| IC50 (full-length SHP2) | Structure (SMILES) | IC50 [1] |
| --- | --- | --- |
| 4 nM | N[C@@H]1c2ccccc2CC12CCN(c1ncc(Oc3ccccc3)nn1)CC2 [Example 81, (S)-1′-(6-phenoxy-1,2,4-triazin-3-yl)-1,3-dihydrospiro[indene-2,4′-piperidin]-1-amine] | 8 nM |
| 24 nM | COc1ccc2c(c1)[C@@H](N)C1(CCN(c3ncc(Sc4ccnc(N)c4Cl)nn3)CC1)C2 [Example 84, (S)-1′-(6-((2-amino-3-chloropyridin-4-yl)thio)-1,2,4-triazin-3-yl)-6-methoxy-1,3-dihydrospiro[indene-2,4′-piperidin]-1-amine] | 2 nM |
